Read-outs that look alike come from different tables or passages of the source.
Experiments:
Type in all cases: cell-based
[1] = tested on: P. aeruginosa NCIMB 10421; experiment: Microstatic activity, MIC in tryptone soy broth; details: Pseudomonas aeruginosa, NCIMB10421, 30° C., 48 hours, lower limit of MIC range, read-out: MIC value (ppm of diol), from
Outline: (§1)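 Diols dissolved at 40 wt% in propylene glycol at 60 °C, diluted in tryptone soy broth to 400 000–3125 ppm, then inoculated (0.1 ml organism per 5 ml). Bacteria incubated 48 h at 30 °C, fungi 5 days at 25 °C. MIC taken as a range between the last concentration showing visible growth/clouding and the first without.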

S. aureus NCIMB 9578 = experiment: Microstatic activity, MIC in tryptone soy broth; details: Staphylococcus aureus, NCIMB9578, 30° C., 48 hours
Outline: as §1

P. vulgaris NCIMB 4175 = experiment: Microstatic activity, MIC in tryptone soy broth; details: Proteus vulgaris, NCIMB4175, 30° C., 48 hours
Outline: as §1

A. niger IMI 149007 = experiment: Microstatic activity, MIC in tryptone soy broth; details: Aspergillus niger, IMI149007, 120 h, 25° C., 5 days
Outline: as §1

C. albicans NCPF 3179 = experiment: Microstatic activity, MIC in tryptone soy broth; details: 25° C., 5 days
Outline: as §1

E. coli NCIMB 8545 = experiment: Microstatic activity, MIC in tryptone soy broth; details: Escherichia coli, NCIMB8545, 30° C., 48 hours
Outline: as §1

C. albicans ATCC 10231 [2] = experiment: Preservation stress test, example formulation 1 (standard emulsion O/W); details: 1% active substance
Outline: (§2)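 O/W emulsion containing 1% diol (water as placebo), inoculated individually or as mixed culture at 10^5-10^6 CFU/g and held 28 d at 20-25° C. Surviving counts at 0, 2, 7, 14 and 28 d after dilution in neutralising phosphate buffer pH 7.4 with Tween 80/lecithin; expressed as log reduction from initial count.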

A. niger ATCC 16404 [3] = experiment: as above; details: 1% active substance
Outline: as §2

S. aureus ATCC 6538 = experiment: Preservation stress test, example formulation 2 (roll-on deodorant formulation); details: 1% active substance
Protocol: (§3) Preservation stress tests (PSTs) were carried out in order to determine the preserving activity of the diols. In the preservation stress test, this is simulated through artificial loadings with microorganisms. These can either be inoculated as mixed population or individually in mixtures independent of one another. The inoculated product samples are incubated under defined conditions and, after defined times, samples are taken in order to determine the germ loading. In the case of adequate preservation, the number of microorganisms should, depending on the type, either decrease or remain constant in order to satisfy the requirements specified, e.g. in Ph. Eur. 6.0. To investigate the preserving effect of the diols, application-typical amounts of the diols were incorporated into example formulations. […] [table] These example formulations were used to prepare various mixtures which each comprised 1% active substance or comprised water instead of the active substance as placebo mixtures. These mixtures were in each case inoculated with the test germs such that a germ loading of 10^5-10^6 CFU/g was present in the test mixture. The bacteria were either used individually for the inoculation or as a mixed culture. To determine the starting germ count, immediately after inoculation, an aliquot was taken, diluted in dilution medium (phosphate buffer, 0.07 molar pH 7.4 (+/−0.2), with 1% Tween 80+0.3% soya lecithin), and the surviving germ count was determined in the dilution stages 10^−1 to 10^−3. The inoculated product samples then incubated for a total of 28 d at 20-25° C. After 2 d, 7 d, 14 d and after 28 d, aliquots were taken and diluted in dilution medium (phosphate buffer, 0.07 molar pH 7.4 (+/−0.2), with 1% Tween 80+0.3% soya lecithin). The surviving germ counts were determined in the dilution stages 10^−1 to 10^−4. The reference point taken for determining the reduction in germ count was the respective initial value of the sample. The results were given as logarithmic reductions.

P. aeruginosa ATCC 15442 = experiment: as above; details: 1% active substance
Protocol: as §3

E. coli ATCC 10536 = experiment: as above; details: 1% active substance
Protocol: as §3

C. albicans ATCC 10231 [4] = experiment: as above; details: 1% active substance
Protocol: as §3

A. niger ATCC 16404 [5] = experiment: as above; details: 1% active substance
Protocol: as §3

[6] = lower limit of MIC range, read-out: MIC value (ppm of diol), from
[7] = upper limit of MIC range, read-out: MIC value (ppm of diol), to

In the case of `CCCCCCCCC(C)(CO)CO` [OMPD, 2-octyl-2-methylpropane-1,3-diol], the MIC [1] is reported as > 100 mg/mL, the MIC (S. aureus NCIMB 9578; [6]) is reported as > 25 mg/mL and the MIC (S. aureus NCIMB 9578; [7]) is reported as ≤ 50 mg/mL. For the same molecule, the MIC (P. vulgaris NCIMB 4175; [6]) was > 50 mg/mL, the MIC (P. vulgaris NCIMB 4175; [7]) was ≤ 100 mg/mL and the MIC (A. niger IMI 149007; [6]) was > 3.12 mg/mL. For the same molecule, the MIC (A. niger IMI 149007; [7]) was ≤ 6.25 mg/mL, the “MIC value (ppm of diol), from” value (C. albicans NCPF 3179; lower limit of MIC range) was >0 ppm and the MIC (C. albicans NCPF 3179; Candida albicans, NCPF3179, 120 h, upper limit of MIC range, read-out: MIC value (ppm of diol), to) was ≤ 3.12 mg/mL. The MIC (E. coli NCIMB 8545; [6]) was > 50 mg/mL, the MIC (E. coli NCIMB 8545; [7]) was ≤ 100 mg/mL and the “Microbicidal activity given as logarithmic reduction in germ count” value (C. albicans ATCC 10231 [2]; 48 h) was “≧3 log. Red”. For the same molecule, the “Microbicidal activity given as logarithmic reduction in germ count” value (C. albicans ATCC 10231 [2]; 7 d) was 5 log. Red, the “Microbicidal activity given as logarithmic reduction in germ count” value (C. albicans ATCC 10231 [2]; 14 d) was 5 log. Red and the “Microbicidal activity given as logarithmic reduction in germ count” value (C. albicans ATCC 10231 [2]; 28 d) was 5 log. Red. The “Microbicidal activity given as logarithmic reduction in germ count” value (A. niger ATCC 16404 [3]; 48 h) was 0 log. Red, the “Microbicidal activity given as logarithmic reduction in germ count” value (A. niger ATCC 16404 [3]; 7 d) was 0 log. Red and the “Microbicidal activity given as logarithmic reduction in germ count” value (A. niger ATCC 16404 [3]; 14 d) was 1 log. Red. The “Microbicidal activity given as logarithmic reduction in germ count” value (A. niger ATCC 16404 [3]; 28 d) was 1 log. Red, the “Microbicidal activity given as logarithmic reduction in germ count” value (S. aureus ATCC 6538; 48 h) was “≧3 log. Red” and the “Microbicidal activity given as logarithmic reduction in germ count” value (S. aureus ATCC 6538; 7 d) was 5 log. Red. The “Microbicidal activity given as logarithmic reduction in germ count” value (S. aureus ATCC 6538; 14 d) was 5 log. Red, the “Microbicidal activity given as logarithmic reduction in germ count” value (S. aureus ATCC 6538; 28 d) was 5 log. Red and the “Microbicidal activity given as logarithmic reduction in germ count” value (P. aeruginosa ATCC 15442; 48 h) was “≧3 log. Red”. The “Microbicidal activity given as logarithmic reduction in germ count” value (P. aeruginosa ATCC 15442; 7 d) was 5 log. Red, the “Microbicidal activity given as logarithmic reduction in germ count” value (P. aeruginosa ATCC 15442; 14 d) was 5 log. Red and the “Microbicidal activity given as logarithmic reduction in germ count” value (P. aeruginosa ATCC 15442; 28 d) was 5 log. Red. For the same molecule, the “Microbicidal activity given as logarithmic reduction in germ count” value (E. coli ATCC 10536; 48 h) was 0 log. Red, the “Microbicidal activity given as logarithmic reduction in germ count” value (E. coli ATCC 10536; 7 d) was “≧3 log. Red” and the “Microbicidal activity given as logarithmic reduction in germ count” value (E. coli ATCC 10536; 14 d) was 5 log. Red. The “Microbicidal activity given as logarithmic reduction in germ count” value (E. coli ATCC 10536; 28 d) was 5 log. Red, the “Microbicidal activity given as logarithmic reduction in germ count” value (C. albicans ATCC 10231 [4]; 48 h) was 0 log. Red and the “Microbicidal activity given as logarithmic reduction in germ count” value (C. albicans ATCC 10231 [4]; 7 d) was 0 log. Red. For the same molecule, the “Microbicidal activity given as logarithmic reduction in germ count” value (C. albicans ATCC 10231 [4]; 14 d) was 0 log. Red, the “Microbicidal activity given as logarithmic reduction in germ count” value (A. niger ATCC 16404 [5]; 48 h) was 0 log. Red and the “Microbicidal activity given as logarithmic reduction in germ count” value (A. niger ATCC 16404 [5]; 7 d) was 0 log. Red. The “Microbicidal activity given as logarithmic reduction in germ count” value (A. niger ATCC 16404 [5]; 14 d) was 0 log. Red.

Reference: patent US20120152149A1, “USE OF 1,3-DIOLS AS BIOCIDES” (BASF SE, priority 2009, published 2012)
